Reference: patent publication US20230330059A1, “3-PHENYL-2H-CHROMENE DERIVATIVE AND PHARMACEUTICAL COMPOSITION FOR PREVENTING OR TREATING ALZHEIMER'S, CONTAINING SAME” (NEUROBIONET, INC., priority 2020, published 2023)

Tests used:
[1] = tested on: N2a cells; assay: Neurite outgrowth in N2a cells (Incucyte); assay type: cell-based, mouse; conditions: 5 µM, FIGS. 14a and 14b
Description: N2a cells were aliquoted at a density of 1x10^4 cells/well into 24-well plates, treated with daidzein, o-desmethylangolensin, S-equal, SPA1413 and SPA1426 at 5 µM, and evaluated for neurite outgrowth by the real-time cell monitoring system InCucyte. The cells were photographed every 2 hours, and the neurites were counted through Incucyte software.

[2] = tested on: nitric oxide production in LPS-treated primary microglia; assay: Nitric oxide production (Griess) in LPS-treated primary microglia; assay type: cell-based, ICR mice; conditions: FIG. 9a
Description: BV2 cells were seeded at a density of 4 x 10^5 cells/well into 96-well plates, and primary microglial cells isolated from the brain of […] ICR mice were seeded at a density of 4 x 10^5 cells/well into 24-well plates.
After stabilization for 24 hours, the cells were treated with various concentrations (1 and 5 µM) of daidzein, o-desmethylangolensin, S-equal, SPA1413, and SPA1426 for 30 minutes and then with LPS (100 ng/ml) for 24 hours at 37° C. The culture media were collected and measured for NO production using a Griess reagent solution (1% sulfanilamide and 0.1% N-1-naphthyl ethylenediamine dihydrochloride in 5% phosphoric acid). Briefly, a total of 50 µL of the supernatant was transferred to new 96-well plates and mixed with the same volume of the Griess reagent solution, followed by measuring OD at 570 nm. In addition, the cell viability was assayed in the same manner as in Experimental Example 2.

[3] = target: T1, Aβ42 (Homo sapiens, UniProt P05067); assay: Thioflavin T (ThT) assay of Aβ fibrosis; assay type: biochemical; conditions: ThT fluorescence, 37° C., 180 minutes; compared to negative control and Daidzein or Equol; FIG. 1
T1 construct: 1,1,1,3,3,3-hexafluoro-2-propanol-treated Aβ42 (# A-1163-1, rPeptide); purchased rPeptide A-1163-1
T1 sequence (P05067 672-713 limits assumed): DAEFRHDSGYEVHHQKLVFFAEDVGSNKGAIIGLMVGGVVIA
Description: ThT assay was used to examine whether the drugs have an inhibitory activity against the fibrosis of Aβ. Lyophilized AggreSure AβAS-72216, AnaSpec) was dissolved in cold Tris buffered saline (TBS; pH 7.2) to prepare a 160 µg/mL Aβ solution. The solution was aliquoted into 1.5 mL tubes and stored at -80° C. until use. ThT (# T3516, Sigma-Aldrich) and drug candidates were dissolved in TBS to form a final concentration of 500 µM. The diluted aggregates were added to […] black plates (Nunc # 242764), mixed with ThT and drug candidates, and incubated at 37° C. for 180 minutes. Fluorescence signals were measured every 5 minutes using a plate reader (Victor3, PerkinElmer).

[4] = tested on: TNF-a; assay: TNF-a production (ELISA) in LPS-treated BV2 cells; assay type: cell-based, mouse; conditions: 5 µM, LPS (100 ng/ml) 24 hours, FIG. 10b
Description: BV2 cells were seeded at a density of 4x10^5 cells/well into 96-well plates and stabilized for 24 hours. Thereafter, the cells were treated with 5 µM of daidzein, o-desmethylangolensin, S-equal, SPA1413, or SPA1426 for 30 minutes and then with LPS (100 ng/ml) for 24 hours at 37° C. The culture medium was collected and quantitatively measured for IL-6 and TNF-a released to the BV2 culture supernatant, using the enzyme immunoassay method […] Enzyme-Linked Immuno Assay (ELISA) kit (R&D systems, Minneapolis, MN, USA). The IL-6 and TNF-a releases from the groups treated with the samples were evaluated relative to that from the LPS-treated group, which was set to be 100%, and the results are depicted in FIGS. 10a and 10b.

[5] = tested on: NGF release in C6 cells; assay: Nerve growth factor (NGF) release in C6 cells (ELISA); assay type: cell-based, rat; conditions: 5 µM, 24 hours, compared to the normal group, FIG. 13
Description: C6 cells were seeded at a density of 4x10^5 cells/well into 96-well plates and stabilized for 24 hours. Thereafter, the cells were treated with 5 µM of daidzein, o-desmethylangolensin, S-equal, SPA1413, or SPA1426 for 24 hours. The culture medium was collected and quantitatively measured for NGF released to the C6 culture supernatant using the enzyme immunoassay method Competitive Enzyme-Linked Immuno Assay (ELISA) kit (R&D systems, Minneapolis, MN, USA). The NGF releases from the groups treated with the samples were evaluated relative to that from the normal group, which was set to be 100%, and the results are depicted in FIG. 13.

[6] = tested on: JNK; assay: JNK protein expression (western blot) in LPS-treated BV2 cells; assay type: cell-based, mouse; conditions: 5 µM, compared to the LPS-treated group, FIG. 12a
Description: BV2 cells were aliquoted at a density of 1x10^6 cells/well into 60 mm dishes and stabilized for 24 hours. Thereafter, the cells were treated with 5 µM of S-equal, SPA1413, or SPA1426 for 30 minutes and then with LPS (100 ng/ml) for 24 hours at 37° C. After being cultured to reach 100% confluence, the cells were washed with PBS and lysed with a lysis buffer (PRO-PREP™ Protein Extraction Solution, Intron Biotechnology, Seongnam, Korea). With bovine serum albumin (BSA) serving as a standard, the protein contents of the lysate supernatants were measured by Bio-Rad Protein Assay (Bio-Rad, California, USA) to determine the total protein content in each sample. Afterwards, each of the samples was loaded in a protein amount of 30 µg on a 10-12% SDS-PAGE gel and run for electrophoresis. The electrophorized proteins were transferred to a PVDF membrane which was then blocked with 5% skim milk and incubated with antibodies to JNK or p38 (Cell Signaling Technologies, Massachusetts, USA). Detection was conducted with a ChemiDoc XRS+ imaging system (Bio-Rad, CA, USA).

[7] = target: MGO-AGEs (Bos taurus, UniProt P02769); assay: Breaking of MGO-induced advanced glycation end products (TNBSA free amine); assay type: biochemical
MGO-AGEs, sequence (P02769 25-607): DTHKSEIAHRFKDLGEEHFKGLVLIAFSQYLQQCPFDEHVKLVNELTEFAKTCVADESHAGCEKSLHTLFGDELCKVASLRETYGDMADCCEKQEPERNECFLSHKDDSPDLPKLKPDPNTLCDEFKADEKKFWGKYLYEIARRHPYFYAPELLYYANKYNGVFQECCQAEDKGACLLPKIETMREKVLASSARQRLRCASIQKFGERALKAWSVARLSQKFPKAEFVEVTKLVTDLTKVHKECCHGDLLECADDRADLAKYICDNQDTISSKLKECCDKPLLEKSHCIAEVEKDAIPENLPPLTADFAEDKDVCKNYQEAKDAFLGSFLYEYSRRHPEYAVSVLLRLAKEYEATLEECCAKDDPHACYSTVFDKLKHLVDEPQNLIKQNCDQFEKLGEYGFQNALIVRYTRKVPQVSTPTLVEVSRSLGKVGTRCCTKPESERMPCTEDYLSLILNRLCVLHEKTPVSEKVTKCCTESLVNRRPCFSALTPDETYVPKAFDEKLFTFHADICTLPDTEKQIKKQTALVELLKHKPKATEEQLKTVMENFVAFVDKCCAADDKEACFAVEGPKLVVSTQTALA
Description: Bovine serum albumin (BSA) was stored at 37° C. for 7 days in mixture with methylglyoxal (MGO) and sodium azide) to prepare AGEs. The AGEs derived from MGO are referred to as “MGO-AGEs”. MGO-AGEs with a concentration of 1 mg/ml were treated for 24 hours with various concentrations (0.1, 0.2, and 0.4 mM) of SPA1413. As a positive control, aminoguanidine (AG), known as an AGE inhibitor, was used. MGO-AGEs were reacted with 2,4,6-trinitrobenzene sulfonic acid (TNBSA) and 4% sodium bicarbonate, followed by adding 10% sodium dodecyl sulfate and 1 N HCl to terminate the reaction. Absorbance was read at 335 nm accounting for free amines, which resulted from the breaking degradation of AGEs, in a microplate to evaluate the efficacy of degrading AGEs.

SMILES	neurite outgrowth [1]	NO production [2]	inhibition of Aβ42 fibrosis [3]	TNF-a production [4]	NGF content [5]	expression level of JNK protein [6]	free amines from breaking of MGO-AGEs, compared to the negative control (MGO-AGEs) ([7]; 0.1, 0.2 and 0.4 mM, 24 hours, MGO-AGEs 1 mg/ml, FIG. 18)	free amines from breaking of MGO-AGEs, compared to SPA1413 ([7]; FIG. 19)
Oc1ccc(C2=Cc3ccc(O)cc3OC2)cc1 [SPA1413, 3-(4-Hydroxyphenyl)-2H-chromen-7-ol]	significantly increased	decreased NO production in dose-dependent manners	showed the effect of inhibiting Aβ42 fibrosis	significantly decreased	significantly increased	decreased	increased levels of free amines	–
CCCC(=O)Oc1ccc(C2=Cc3ccc(OC(=O)CCC)cc3OC2)cc1 [SPA1426, 4-(7-(butyryloxy)-2H-chromen-3-yl)phenyl butyrate]	significantly increased	decreased NO production in dose-dependent manners	showed the effect of inhibiting Aβ42 fibrosis	significantly decreased	significantly increased	decreased	–	higher levels of free amines
